Assay results as given in paper PMC13210772, “Dual FLT3/MAPK14 Proteolysis-Targeting Chimera (PROTAC) Induces Potent Acute Myeloid Leukemia Cell Death” (Pharmaceuticals, 2026).

Molecular target: MAPK14 (Homo sapiens, UniProt Q16539)
Assay: MAPK14 degradation, immunoblot in leukemia cells
Assay type: cell-based
Design: endogenous in cells; host or cells: K562, RS4-11, MV4-11, MOLM-13 (A17); MV4-11 (A20)
Settings: K562, RS4-11, MV4-11 and MOLM-13 cells; 50 nM MA191, 24 h

Sequence of MAPK14 (Q16539 2-360 limits assumed): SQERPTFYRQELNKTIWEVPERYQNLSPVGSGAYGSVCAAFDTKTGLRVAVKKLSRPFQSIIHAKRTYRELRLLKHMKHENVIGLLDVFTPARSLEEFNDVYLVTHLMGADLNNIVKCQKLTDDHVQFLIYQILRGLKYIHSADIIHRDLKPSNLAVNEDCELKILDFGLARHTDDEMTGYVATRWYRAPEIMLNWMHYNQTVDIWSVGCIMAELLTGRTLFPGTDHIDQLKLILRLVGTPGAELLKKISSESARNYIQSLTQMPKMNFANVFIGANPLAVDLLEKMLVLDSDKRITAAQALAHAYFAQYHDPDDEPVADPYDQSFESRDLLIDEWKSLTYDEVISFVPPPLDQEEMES

Cc1ncsc1-c1ccc([C@H](C)NC(=O)[C@@H]2C[C@@H](O)CN2C(=O)[C@@H](NC(=O)[C@H]2CC[C@H](C(=O)N3CCN(CCNC(=O)c4cc(Oc5ccc(NC(=O)Nc6cc(C(C)(C)C)on6)cc5)ccn4)CC3)CC2)C(C)(C)C)cc1 [MA191, 4-(4-(3-(5-(tert-Butyl)isoxazol-3-yl)ureido)phenoxy)-N-(2-(4-(trans-4-(((S)-1-((2S,4R)-4-hydroxy-2-(((S)-1-(4-(4-methylthiazol-5-yl)phenyl)ethyl)carbamoyl)pyrrolidin-1-yl)-3,3-dimethyl-1-oxobutan-2-yl)carbamoyl)cyclohexanecarbonyl)piperazin-1-yl)ethyl)picolinamide]
MAPK14 protein level, immunoblot: depleted MAPK14
